Source: the Kinase Knowledgebase extract (Sharma et al. 2016)

Target: PIK3CD (Human) (UniProt O00329)
Assay: Enzyme Assay

PIK3CD (Human), sequence (O00329 whole entry, looked up): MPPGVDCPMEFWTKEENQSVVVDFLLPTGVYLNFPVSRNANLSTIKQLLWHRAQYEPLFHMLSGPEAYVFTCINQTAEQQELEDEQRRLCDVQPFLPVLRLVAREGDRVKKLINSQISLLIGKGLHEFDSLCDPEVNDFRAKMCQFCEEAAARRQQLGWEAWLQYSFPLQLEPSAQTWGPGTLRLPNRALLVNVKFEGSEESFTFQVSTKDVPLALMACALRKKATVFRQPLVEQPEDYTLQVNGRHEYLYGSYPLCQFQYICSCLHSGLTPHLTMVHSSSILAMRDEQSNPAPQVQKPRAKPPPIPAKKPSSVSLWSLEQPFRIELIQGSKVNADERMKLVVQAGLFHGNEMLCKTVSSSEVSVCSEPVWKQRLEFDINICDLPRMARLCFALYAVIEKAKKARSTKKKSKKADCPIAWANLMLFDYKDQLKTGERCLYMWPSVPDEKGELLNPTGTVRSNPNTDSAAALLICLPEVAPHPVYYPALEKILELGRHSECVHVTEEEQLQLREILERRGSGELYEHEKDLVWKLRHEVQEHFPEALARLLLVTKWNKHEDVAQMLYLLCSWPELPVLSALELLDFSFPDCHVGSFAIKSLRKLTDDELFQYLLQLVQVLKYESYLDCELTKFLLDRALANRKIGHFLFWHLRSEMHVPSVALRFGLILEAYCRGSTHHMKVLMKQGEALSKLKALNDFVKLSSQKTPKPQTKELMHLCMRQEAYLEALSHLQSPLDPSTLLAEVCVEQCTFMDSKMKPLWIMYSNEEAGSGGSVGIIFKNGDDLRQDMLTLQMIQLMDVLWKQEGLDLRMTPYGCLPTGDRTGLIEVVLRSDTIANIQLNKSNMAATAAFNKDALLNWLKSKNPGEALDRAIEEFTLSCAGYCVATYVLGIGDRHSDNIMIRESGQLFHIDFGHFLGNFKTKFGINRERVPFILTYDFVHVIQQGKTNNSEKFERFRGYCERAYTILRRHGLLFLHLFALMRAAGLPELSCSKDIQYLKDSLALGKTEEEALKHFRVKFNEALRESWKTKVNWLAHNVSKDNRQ

CCn1c(-c2cnc(C)nc2)nc2c(O[C@H]3CCN(C(=O)N4C5CCC4CC5)C3)ncnc21
IC50: 0.01 µM

CCn1c(-c2cnc(C)nc2)nc2c(O[C@@H]3CN(C(=O)OC(C)(C)C)C[C@H]3F)ncnc21.CCn1c(-c2cnc(C)nc2)nc2c(O[C@H]3CN(C(=O)OC(C)(C)C)C[C@@H]3F)ncnc21
IC50: 0.0033 µM

CCn1c(-c2cnc(C)nc2)nc2c(O[C@H]3CCN(c4nccs4)C3)ncnc21
IC50: 0.044 µM

CCn1ncc(-c2nc3c(O[C@H]4CCN(C(=O)Oc5ccc(C)cc5)C4)ncnc3n2C)c1C
IC50: 0.34 µM

CCn1ncc(-c2nc3c(O[C@H]4CCN(S(=O)(=O)C(C)C)C4)ncnc3n2C)c1C
IC50: 0.53 µM

CCn1ncc(-c2nc3c(OC4CCN(C(=O)COC)C4)ncnc3n2C)c1C (configuration not stated)
IC50: 0.077 µM

CCn1ncc(-c2nc3c(OC4CCN(C(=O)c5ccc6ccccc6c5)C4)ncnc3n2C)c1C (configuration not stated)
IC50: 0.028 µM

CCC(=O)N1CC[C@H](Oc2ncnc3c2nc(I)n3C)C1
IC50: 0.14 µM

CCn1c(-c2cnc(C)nc2)nc2c(O[C@H]3CCN(C(=O)c4ccn(C)n4)C3)ncnc21
IC50: 0.003 µM

Cn1c(-c2cncc3ccccc23)nc2c(O[C@H]3CCN(C(=O)OC(C)(C)C)C3)ncnc21
IC50: 0.32 µM

CCn1ncc(-c2nc3c(O[C@H]4CCN(C(=O)c5nnsc5C)C4)ncnc3n2C)c1C
IC50: 0.0053 µM

CCn1ncc(-c2nc3c(O[C@H]4CCN(C(=O)c5cc(C)on5)C4)ncnc3n2C)c1C
IC50: 0.012 µM

CCn1ncc(-c2nc3c(O[C@H]4CCN(c5ncnc6sccc56)C4)ncnc3n2C)c1C
IC50: 0.0057 µM

CCn1c(-c2cnc(OC)c(C)c2)nc2c(O[C@H]3CCN(C(=O)C4CC4)C3)ncnc21
IC50: < 0.001 µM

CCn1ncc(-c2nc3c(O[C@@H]4CCN(C(=O)C5CCOCC5)C4)ncnc3n2C)c1C
IC50: 1.6 µM

CCC(=O)N1CC[C@H](Oc2ncnc3c2nc(-c2cnn(-c4ccccc4)c2C)n3C)C1
IC50: 0.0036 µM

CCn1ncc(-c2nc3c(O[C@H]4CCN(C(=O)c5c[nH]nn5)C4)ncnc3n2C)c1C
IC50: 0.012 µM

CCn1c(-c2cnc(C)nc2)nc2c(O[C@H]3CCN(C(=O)C4CCOCC4)C3)ncnc21
IC50: 0.0085 µM

CCn1c(N(C)CC(C)C)nc2c(O[C@H]3CCN(C(=O)OC(C)(C)C)C3)ncnc21
IC50: 0.15 µM

CCC(=O)N1CC[C@H](Oc2ncnc3c2nc(Oc2cnc(C)nc2)n3C)C1
IC50: 0.38 µM

CCn1ncc(-c2nc3c(O[C@H]4CCN(C(=O)c5cc6occc6[nH]5)C4)ncnc3n2C)c1C
IC50: 0.21 µM

Cc1n[nH]cc1-c1nc2c(O[C@H]3CCN(C(=O)OC(C)(C)C)C3)ncnc2n1C
IC50: 0.013 µM

CCC(=O)N1CC[C@H](Oc2ncnc3c2nc(-c2cncc(N)c2)n3C)C1
IC50: 0.0057 µM

CCC(=O)N1CC[C@H](Oc2ncnc3c2nc(-c2ccc4[nH]ccc4c2)n3C)C1
IC50: 0.037 µM

CCn1ncc(-c2nc3c(O[C@H]4CCN(C(=O)c5[nH]ncc5C)C4)ncnc3n2C)c1C
IC50: 0.0036 µM

CCC(=O)N1CC[C@H](Oc2ncnc3c2nc(CC(C)C)n3C)C1
IC50: 0.89 µM

CCOC(=O)N1CC[C@H](Oc2ncnc3c2nc(-c2cnc(C)nc2)n3CC)C1
IC50: 0.018 µM

CCC(=O)N1CC[C@H](Oc2ncnc3c2nc(Oc2cc(F)cc(OC)c2)n3C)C1
IC50: 0.11 µM

CCn1c(C(=O)NC2CCCCC2)nc2c(O[C@H]3CCN(C(=O)OC(C)(C)C)C3)ncnc21
IC50: 0.072 µM

CCn1c(C(=O)NCC(F)(F)F)nc2c(O[C@H]3CCC(C(=O)N4CC(OC)C4)C3)ncnc21 (some centres not stated)
IC50: 0.0099 µM

CCC(=O)N1CC[C@H](Oc2ncnc3c2nc(-c2cnn(CC)c2C)n3CC)C1
IC50: 0.0006 µM

CCn1c(-c2cnc(C)nc2)nc2c(O[C@H]3CCN(C(=O)OC(C)(C)C)[C@@H]3C)ncnc21
IC50: 0.004 µM

CCn1ncc(-c2nc3c(O[C@H]4CCN(C(=O)c5conc5C)C4)ncnc3n2C)c1C
IC50: 0.014 µM

CCn1ncc(-c2nc3c(O[C@H]4CCN(C(=O)NC5CCCCC5)C4)ncnc3n2C)c1C
IC50: 0.23 µM

CCn1c(-c2cnc(C)nc2)nc2c(O[C@H]3CCN(C(=O)[C@H]4CC5CCN4C5)C3)ncnc21 (some centres not stated)
IC50: 0.088 µM

CCn1ncc(-c2nc3c(O[C@H]4CCN(C(=O)OCC(C)C)C4)ncnc3n2C)c1C
IC50: 0.017 µM

CCn1ncc(-c2nc3c(S[C@H]4CCN(C(=O)c5ccn(C)n5)C4)ncnc3n2C)c1C
IC50: 0.019 µM

CCn1ncc(-c2nc3c(OC4CCN(C(=O)C5CCOCC5)CC4)ncnc3n2C)c1C
IC50: 1.1 µM

CCC(=O)N1CC[C@H](Oc2ncnc3c2nc(-c2cnc4[nH]nc(C)c4c2)n3C)C1
IC50: 0.023 µM

CCn1c(-c2ccc(OC)nc2)nc2c(O[C@H]3CCN(C(=O)C4CCOCC4)C3)ncnc21
IC50: 0.0016 µM

CCn1c(-c2cnc(C)nc2)nc2c(O[C@H]3CCN(C(=O)C4[C@@H](C)[C@@H]4C)C3)ncnc21 (some centres not stated)
IC50: 0.013 µM

CCn1c(-c2cnc3[nH]ccc3c2)nc2c(O[C@H]3CCN(C(=O)C4CC4)C3)ncnc21
IC50: < 0.001 µM

CCn1c(-c2cnc(C)nc2)nc2c(O[C@H]3CCN(C(=O)N4CC(OC)C4)C3)ncnc21
IC50: 0.0018 µM

CCn1c(-c2cnc(C)nc2)nc2c(O[C@H]3CCN(C(=O)C4CNC4)C3)ncnc21
IC50: 0.07 µM

CCC(=O)N1CC[C@H](Oc2ncnc3c2nc(-c2cc(O)cc(F)c2)n3C)C1
IC50: 0.0038 µM

CCn1ncc(-c2nc3c(OC4CCN(C(=O)CC5CCOCC5)C4)ncnc3n2C)c1C (configuration not stated)
IC50: 0.031 µM

CCn1ncc(-c2nc3c(O[C@H]4CCN(C(=O)C5CC(F)(F)C5)C4)ncnc3n2C)c1C
IC50: 0.013 µM

CCn1ncc(-c2nc3c(O[C@H]4CCN(C(=O)c5cccnc5)C4)ncnc3n2C)c1C
IC50: 0.019 µM

CCn1ncc(-c2nc3c(CC4CCN(C(=O)OC(C)(C)C)C4)ncnc3n2C)c1C (configuration not stated)
IC50: 0.56 µM

Cn1c(-c2cn[nH]c2)nc2c(O[C@H]3CCN(C(=O)OC(C)(C)C)C3)ncnc21
IC50: 0.028 µM

Cn1c(-c2ccc(N3CCCC3)nc2)nc2c(O[C@H]3CCN(C(=O)OC(C)(C)C)C3)ncnc21
IC50: 0.59 µM

CCC(=O)N1CC[C@H](Oc2ncnc3c2nc(-c2cnc(C(C)(C)C)s2)n3CC)C1
IC50: 0.0022 µM

CCC(=O)N1CC[C@H](Oc2ncnc3c2nc(-c2cnc(OC)c(C(F)(F)F)c2)n3C)C1
IC50: 0.0078 µM

CCn1c(-c2cnc(C)nc2)nc2c(O[C@H]3CCN(c4cccnc4)C3)ncnc21
IC50: 0.01 µM

CCn1c(-c2cnn3c2CCCC3)nc2c(O[C@H]3CCN(C(=O)C(C)C)C3)ncnc21
IC50: < 0.001 µM

CCn1c(-c2cnc(C)nc2)nc2c(O[C@H]3CCN(C(=O)N(C)C4CC4)C3)ncnc21
IC50: 0.028 µM

CCN(C)C(=O)N1CC[C@H](Oc2ncnc3c2nc(-c2cnc(C)nc2)n3CC)C1
IC50: 0.01 µM

CCn1c(C(=O)NCC2CC2)nc2c(O[C@H]3CCN(C(=O)OC(C)(C)C)C3)ncnc21
IC50: 0.15 µM

CCn1ncc(-c2nc3c(O[C@H]4CCN(C(=O)C5CCC5)C4)ncnc3n2C)c1C
IC50: 0.007 µM

CCn1c(-c2cnc(C)nc2)nc2c(O[C@H]3CCN(C(=O)N4CC(F)C4)C3)ncnc21
IC50: 0.0051 µM

CCC(=O)N1CC[C@H](Oc2ncnc3[nH]c(-c4cnn(CC)c4C)nc23)C1
IC50: 0.024 µM

CCn1ncc(-c2nc3c(O[C@H]4CCN(C(=O)c5nc(C)oc5C)C4)ncnc3n2C)c1C
IC50: 0.0072 µM

CCC(=O)N1CCC(Oc2ncnc3c2nc(-c2cnn(CC)c2C)n3C)CC1
IC50: 0.8 µM

CCn1ncc(-c2nc3c(O[C@H]4CCN(C(=O)c5cc6n(n5)CCC6)C4)ncnc3n2C)c1C
IC50: 0.076 µM

CCn1ncc(-c2nc3c(O[C@H]4CCN(C(=O)OCC(C)(C)C)C4)ncnc3n2C)c1C
IC50: 0.028 µM

CCn1c(-c2ccc(C(F)(F)F)nc2)nc2c(O[C@H]3CCN(C(=O)N4CC(OC)C4)C3)ncnc21
IC50: < 0.001 µM

CCn1c(-c2cnc(C)nc2)nc2c(O[C@H]3CCN(C(=O)c4cocn4)C3)ncnc21
IC50: 0.014 µM

CCn1c(C(=O)NCC(F)(F)F)nc2c(O[C@H]3CCN(C(=O)OC(C)(C)C)C3)ncnc21
IC50: 0.031 µM

CCC(=O)N1CC[C@H](Oc2ncnc3c2nc(C2CC2)n3C)C1
IC50: 0.58 µM

CCn1ncc(-c2nc3c(S(=O)(=O)[C@H]4CCN(C(=O)OC(C)(C)C)C4)ncnc3n2C)c1C
IC50: 0.16 µM

CCn1c(-c2cnc(OC)c(F)c2)nc2c(O[C@H]3CCN(C(=O)c4cncn4C)C3)ncnc21
IC50: 0.0015 µM

CCn1c(-c2cnc(C)nc2)nc2c(O[C@H]3CCN(C(=O)N4CCC(CO)C4)C3)ncnc21 (some centres not stated)
IC50: 0.0095 µM

CCn1c(-c2cnc(OC)c(F)c2)nc2c(O[C@H]3CCN(C(=O)C(C)C)C3)ncnc21
IC50: < 0.001 µM

Cn1c(-c2cnn3cccnc23)nc2c(O[C@H]3CCN(C(=O)OC(C)(C)C)C3)ncnc21
IC50: 0.21 µM

CCn1ncc(-c2nc3c(O[C@H]4CCN(C(=O)c5cccn5C)C4)ncnc3n2C)c1C
IC50: 0.0087 µM

CCC(=O)N1CC[C@H](Oc2ncnc3c2nc(C(F)F)n3CC)C1
IC50: 0.1 µM

CCn1ncc(-c2nc3c(O[C@H]4CCN(C(=O)Nc5cccc(C)c5)C4)ncnc3n2C)c1C
IC50: 0.65 µM

CCn1c(-c2cnc(C)nc2)nc2c(O[C@H]3CCN(c4ccc5cnoc5c4)C3)ncnc21
IC50: 0.011 µM

CCC(=O)N1CC[C@H](Oc2ncnc3c2nc(CC(C)C)n3CC)C1
IC50: 0.24 µM

CCn1c(-c2ccc(OC)c(F)c2)nc2c(O[C@H]3CCN(C(=O)C4CC4)C3)ncnc21
IC50: 0.0022 µM

CCn1c(-c2cnc(C)nc2)nc2c(OC3CN(Cc4ccccc4)CC3(C)C)ncnc21 (configuration not stated)
IC50: 0.028 µM

CCn1c(-c2cnc(C)nc2)nc2c(O[C@H]3CCN(c4ccc(F)cc4)C3)ncnc21
IC50: 0.018 µM

CCn1ncc(-c2nc3c(O[C@H]4CCN(c5cc(-n6cccn6)ncn5)C4)ncnc3n2C)c1C
IC50: 0.216 µM

CCn1ncc(-c2nc3c(O[C@H]4CCN(C(=O)c5cccc6ccccc56)C4)ncnc3n2C)c1C
IC50: 0.067 µM

CCn1ncc(-c2nc3c(O[C@H]4CCN(C(=O)NC(C)(C)CC(C)(C)C)C4)ncnc3n2C)c1C
IC50: 0.0047 µM

CCn1c(-c2cnc(C)nc2)nc2c(O[C@H]3CN(C(=O)C4CC4)C[C@@H]3O)ncnc21
IC50: 0.017 µM

CCC(=O)N1CC[C@H](Oc2ncnc3c2nc(C(F)(F)F)n3CC)C1
IC50: 0.099 µM

CCn1c(-c2cnc(C)nc2)nc2c(O[C@H]3CCN(C(=O)C4CC4)C3)ncnc21
IC50: 0.0028 µM

CCn1ncc(-c2nc3c(O[C@H]4CCN(C(=O)C5CCOCC5)C4)ncnc3n2C)c1C
IC50: 0.0043 µM

CCn1ncc(-c2nc3c(O[C@H]4CCN(C(=O)C5CC(=O)N(C)C5)C4)ncnc3n2C)c1C (some centres not stated)
IC50: 0.03 µM

CCn1ncc(-c2nc3c(O[C@H]4CCN(C(=O)c5cc(C)n(C)c5C)C4)ncnc3n2C)c1C
IC50: 0.02 µM

CCn1ncc(-c2nc3c(O[C@H]4CCN(C(=O)c5nonc5C)C4)ncnc3n2C)c1C
IC50: 0.026 µM
